Experimental data taken from patent publication USRE49361E1, “Fused bicyclic (hetero)aromatic compounds useful for the treatment of cancers” (JAZZ PHARMACEUTICALS IRELAND LIMITED, priority 2014, dated 2023).

Each compound was assayed on C-RAF-mediated ERK activation in B-RAF^WT IPC-298 cells (NRAS^Q61L) (assay: IPC-298 AlphaScreen SureFire pERK1/2 cellular assay). Settings: 1 hour treatment, in comparison to Dabrafenib.
Assay type: cell-based, human
Method: On day 2, compounds at a concentration of 6 mM are serially diluted 5 μl into 45 μl of 100% dimethyl sulfoxide (DMSO) six times in 96-well plates for a total of 7 dilution points. […] The cells are treated for 1 hour at 37° C. in 5% CO2. The treatment is then removed and the cells are incubated with lysis buffer containing phosphatase inhibitors for 10 minutes at room temperature with gentle shaking. […] The biotinylated antibody binds to the streptavidin-coated donor beads and the phopsho-ERK1/2 antibody binds to the acceptor beads. Plates are read on an EnVision reader (Perkin Elmer) and excitation of the beads at 680 nm with a laser induces the release of singlet oxygen molecules from the donor beads that triggers energy transfer to the acceptor beads in close proximity, producing a signal that can be measured at 570 nm. Both antibodies bind to phosphorylated ERK proteins, bringing the donor and acceptor beads into close proximity.
All data are analysed using the GraphPad Prism software package. Activation of ERK phosphorylation is expressed as a percentage of activation relative to the reference compound, Dabrafenib.

Compound | paradoxical activation of MAPK pathway (ERK phosphorylation) relative to Dabrafenib
O=C1CCc2c(Oc3ccc4c(c3)CC(c3nc(-c5ccsc5)c[nH]3)CO4)ccnc2N1 (stereo not drawn) [Example 6, 5-[3-[4-(3-thienyl)-1H-imidazol-2-yl]chroman-6-yl]oxy-3,4-dihydro-1H-1,8-naphthyridin-2-one] | reduced paradoxical activity
O=C1CCc2c(Oc3ccc4c(c3)O[C@H](c3nc(-c5ccccc5)c[nH]3)CO4)ccnc2N1 [Example 20, 5-[[(3R)-3-(4-phenyl-1H-imidazol-2-yl)-2,3-dihydro-1,4-benzodioxin-6-yl]oxy]-3,4-dihydro-1H-1,8-naphthyridin-2-one] | reduced paradoxical activity
O=C1CCc2c(Oc3ccc4c(c3)CC(c3nc(-c5cccs5)c[nH]3)CO4)ccnc2N1 (stereo not drawn) [Example 7, 5-[3-[4-(2-thienyl)-1H-imidazol-2-yl]chroman-6-yl]oxy-3,4-dihydro-1H-1,8-naphthyridin-2-one] | reduced paradoxical activity
O=C1CCc2c(Oc3ccc4c(c3)CC(c3cc(-c5ccccc5)[nH]n3)CO4)ccnc2N1 (stereo not drawn) [Example 18, 5-[3-(5-phenyl-1H-pyrazol-3-yl)chroman-6-yl]oxy-3,4-dihydro-1H-1,8-naphthyridin-2-one] | reduced paradoxical activity
O=C1CCc2c(Oc3ccc4c(c3)CC(c3nc(-c5ccncc5)c[nH]3)CO4)ccnc2N1 (stereo not drawn) [Example 4, 5-[3-[4-(4-pyridyl)-1H-imidazol-2-yl]chroman-6-yl]oxy-3,4-dihydro-1H-1,8-naphthyridin-2-one] | reduced paradoxical activity
O=C1CCc2c(Oc3ccc4c(c3)O[C@@H](c3nc(-c5ccccc5)c[nH]3)CO4)ccnc2N1 [Example 19, 5-[[(3S)-3-(4-phenyl-1H-imidazol-2-yl)-2,3-dihydro-1,4-benzodioxin-6-yl]oxy]-3,4-dihydro-1H-1,8-naphthyridin-2-one] | reduced paradoxical activity
